# Measured values: patent US20230407243A1, “GENETIC PLATFORM TO INVESTIGATE THE FUNCTIONS OF BACTERIAL DRUG EFFLUX PUMPS” (priority 2022, published 2023)
# Like-named read-outs stand apart in the source and are kept apart here.
# Key:
# Assay type in all cases: cell-based, Escherichia coli
# [1] = tested on: EKO-35 strains producing different efflux pumps (EKO-35 araC::X); assay: Checkerboard synergy (FICI) of PAβN or NMP with antibiotics; conditions: for FICI / Effect: NMP + antibiotic; for MICb Alone: antibiotic alone; for MICb Combined: antibiotic in combination with NMP
# Experimental: (§1) Synergy measurement using checkerboard analysis was performed in 96-well microtiter plates using the microdilution broth method, according to CLSI guidelines (Patel J. B., 2015). The cell inocula were prepared using the colony resuspension method. The minimum inhibitory concentrations (MICs) were defined as the lowest concentration that provided no growth, as determined by measurement of the OD600nm using a Synergy H1 microplate reader (BioTek). Susceptibility testing was performed in MHB II with a final volume of 100 μL. PAI3N (Bachem Americas) was solubilized in MHB II. […] Solvent controls were included in each plate.
# (§2) The Fractional Inhibitory Concentration Index (FICI) was used to assess the synergy of PAI3N in combination with different antibiotics. The FICI represents the ΣFIC of each drug. The FICI for each drug was calculated using the following formula: FICI=FICA+FICB=(CA/MICA)+(CB/MICB). Where MICA and MICB are the MICs of drugs A (PAI3N/NMP) and B (antibiotic) alone, and CA and CB are the MICs of the drugs in combination. The effects of PAβN or NMP in combination with antibiotics were classified as: synergistic (FICI<0.5), additive (FICI>0.5-1.0), indifferent (FICI>1.0-2.0), and antagonistic (FICI>2.0). Fold increases in resistance provided by efflux pumps were calculated by dividing the MIC values of strains expressing efflux pumps by the MIC value of EKO-35.
# [2] = tested on: EKO-35 porinated strain expressing acrB; assay: Checkerboard synergy (FICI), porinated strain
# Procedure, shortened: (§3)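 Interaction of PAβN or NMP with antibiotics is scored as FICI = CA/MICA + CB/MICB, from MICs (no growth, OD600) in MHB II checkerboard microdilution following CLSI. Solvent controls accompany every plate.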
# [3] = tested on: EKO-35-Pore acrBD408A (functionally inactive AcrB variant); assay: Checkerboard synergy (FICI), porinated strain
# Procedure, shortened: as §3
# wild-type E. coli K-12 = tested on: wild-type E. coli K-12
# Experimental: as §1, §2
# EKO-35 = tested on: EKO-35
# Experimental: as §1, §2
# ΔtolC-Pore = tested on: ΔtolC-Pore
# Experimental: as §1, §2
# EKO-35 acrBD408A = tested on: EKO-35 acrBD408A
# Experimental: as §1, §2
# ΔtolC = tested on: ΔtolC
# Experimental: as §1, §2
# [4] = strain EKO-35 acrB Pore, NMP + antibiotic
# [5] = strain EKO-35 acrBD408A Pore, NMP + antibiotic
# [6] = strain EKO-35, NMP + antibiotic
# [7] = strain ΔtolC Pore, NMP + antibiotic
# [8] = strain EKO-35 acrBD408A, NMP + antibiotic
structure (smiles),measurement,setting,value
CC[n+]1c(-c2ccccc2)c2cc(N)ccc2c2ccc(N)cc21 [ethidium bromide],FICI,[1]; EKO-35 acrB,0.253
same,FICI,[1]; EKO-35 acrEF,0.500
same,Effect,[1]; strain EKO-35 acrB,Synergistic (Synergy (FICI ≤0.5))
same,FICI,[1]; strain EKO-35 acrB,0.253
same,MICb Alone,[1]; strain EKO-35 acrB,15.6 µg/mL
same,MICb Combined,[1]; strain EKO-35 acrB,2 µg/mL
same,Effect,[1]; strain EKO-35 acrEF,Synergistic (Synergy (FICI ≤0.5))
same,FICI,[1]; strain EKO-35 acrEF,0.500
same,MICb Alone,[1]; strain EKO-35 acrEF,2 µg/mL
same,MICb Combined,[1]; strain EKO-35 acrEF,0.5 µg/mL
same,FICI,"[2]; EKO-35 acrB Pore, NMP + antibiotic",0.191
same,Effect,[2]; [4],Synergistic (Synergy (FICI ≤0.5))
same,FICI,[2]; [4],0.191
same,MICb Alone,"[2]; strain EKO-35 acrB Pore, antibiotic alone",15.6 µg/mL
same,MICb Combined,"[2]; strain EKO-35 acrB Pore, antibiotic in combination with NMP",2 µg/mL
same,FICI,"[3]; EKO-35 acrBD408A Pore, NMP + antibiotic",1.000
same,Effect,[3]; [5],— (indifferent (FICI >1.0))
same,FICI,[3]; [5],1.000
same,MICb Combined,"[3]; strain EKO-35 acrBD408A Pore, antibiotic in combination with NMP",0.122 µg/mL
same,FICI,"wild-type E. coli K-12; K-12, NMP + antibiotic",0.375
same,Effect,"wild-type E. coli K-12; strain K-12, NMP + antibiotic",Synergistic (Synergy (FICI ≤0.5))
same,FICI,"wild-type E. coli K-12; strain K-12, NMP + antibiotic",0.375
same,MICb Alone,"wild-type E. coli K-12; strain K-12, antibiotic alone",500 µg/mL
same,MICb Combined,"wild-type E. coli K-12; strain K-12, antibiotic in combination with NMP",125 µg/mL
same,FICI,"EKO-35; EKO-35, NMP + antibiotic",2.000
same,Effect,EKO-35; [6],— (indifferent (FICI >1.0))
same,FICI,EKO-35; [6],2.000
same,MICb Alone,"EKO-35; strain EKO-35, antibiotic alone",0.244 µg/mL
same,MICb Combined,"EKO-35; strain EKO-35, antibiotic in combination with NMP",0.244 µg/mL
same,Effect,ΔtolC-Pore; [7],Additive (additive (FICI >0.5-1.0))
same,FICI,ΔtolC-Pore; [7],0.500
same,MICb Alone,"ΔtolC-Pore; strain ΔtolC Pore, antibiotic alone",1.95 µg/mL
same,MICb Combined,"ΔtolC-Pore; strain ΔtolC Pore, antibiotic in combination with NMP",0.488 µg/mL
same,FICI,"ΔtolC-Pore; ΔtolC Pore, NMP + antibiotic",0.500
same,FICI,"EKO-35 acrBD408A; EKO-35 acrBD408A, NMP + antibiotic",0.750
same,Effect,EKO-35 acrBD408A; [8],Additive (additive (FICI >0.5-1.0))
same,FICI,EKO-35 acrBD408A; [8],0.750
same,MICb Alone,"EKO-35 acrBD408A; strain EKO-35 acrBD408A, antibiotic alone",0.488 µg/mL
same,Effect,"ΔtolC; strain ΔtolC, NMP + antibiotic",Synergistic (Synergy (FICI ≤0.5))
same,FICI,"ΔtolC; strain ΔtolC, NMP + antibiotic",0.281
same,MICb Alone,"ΔtolC; strain ΔtolC, antibiotic alone",7.81 µg/mL
same,MICb Combined,"ΔtolC; strain ΔtolC, antibiotic in combination with NMP",1.95 µg/mL
same,FICI,"ΔtolC; ΔtolC, NMP + antibiotic",0.281
